From PubChem BioAssay AID192 (DTP/NCI, 2004)
Several values for one entry are separate records, joined by “and”; a condition that tells them apart may be missing. Equal values may be shown once. Inconclusive results and toxic doses are left out.

Tested on: BDF1 mice, B16 melanoma ip, median survival T/C
Experiment: NCI In Vivo Anticancer Drug Screen. Data for tumor model B16 Melanoma (intraperitoneal) in B6D2F1 (BDF1) mice
Settings: endpoint: median survival time, higher = longer survival
Procedure, shortened: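 Vehicle-treated animals serve as the reference (C); treated animals (T) are scored for survival or tumor size after tumor transplantation.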

[1] = dose: 50.0 mg/kg/injection, schedule: Q01DX009 (ip), vehicle: Klucel (hydroxypropylcellulose) (HPC)
[2] = dose: 100.0 mg/kg/injection, schedule: Q01DX009 (ip), vehicle: Klucel (hydroxypropylcellulose) (HPC)
[3] = dose: 50.0 mg/kg/injection, schedule: Q01DX009 (ip), vehicle: saline
[4] = dose: 100.0 mg/kg/injection, schedule: Q01DX009 (ip), vehicle: saline
[5] = dose: 200.0 mg/kg/injection, schedule: Q01DX009 (ip), vehicle: saline
[6] = dose: 400.0 mg/kg/injection, schedule: Q01DX009 (ip), vehicle: saline
[7] = dose: 25.0 mg/kg/injection, schedule: Q01DX009 (ip), vehicle: saline with Tween-80
[8] = dose: 50.0 mg/kg/injection, schedule: Q01DX009 (ip), vehicle: saline with Tween-80
[9] = dose: 100.0 mg/kg/injection, schedule: Q01DX009 (ip), vehicle: saline with Tween-80
[10] = dose: 100.0 mg/kg/injection, schedule: Q04DX003 (ip), vehicle: saline with Tween-80
[11] = dose: 200.0 mg/kg/injection, schedule: Q04DX003 (ip), vehicle: saline with Tween-80
[12] = dose: 200.0 mg/kg/injection, schedule: Q01DX009 (ip), vehicle: saline with Tween-80
[13] = dose: 400.0 mg/kg/injection, schedule: Q01DX009 (ip), vehicle: saline with Tween-80
[14] = dose: 0.1 mg/kg/injection, schedule: Q01DX009 (ip), vehicle: saline
[15] = dose: 0.2 mg/kg/injection, schedule: Q01DX009 (ip), vehicle: saline

O=S(=O)(O)C(Nc1ccccc1)c1ccccc1 (stereo unspecified)
T/C (dose: 100.0 mg/kg/injection, schedule: Q01DX009 (ip), vehicle: saline sonified): 93 % of control | T/C (dose: 200.0 mg/kg/injection, schedule: Q01DX009 (ip), vehicle: saline sonified): 93 % of control | T/C (dose: 400.0 mg/kg/injection, schedule: Q01DX009 (ip), vehicle: saline sonified): 102 % of control

CCN(CC)CCCCCOC(=O)c1ccccc1
T/C [1]: 112 % of control | T/C [2]: 93 % of control | T/C (dose: 200.0 mg/kg/injection, schedule: Q01DX009 (ip), vehicle: Klucel (hydroxypropylcellulose) (HPC)): 103 % of control

CC1CC(NC(=S)S)CC(C)(C)C1 (stereo unspecified)
T/C (dose: 0.25 mg/kg/injection, schedule: Q01DX009 (ip), vehicle: Klucel (hydroxypropylcellulose) (HPC)): 96 % of control | T/C (dose: 0.5 mg/kg/injection, schedule: Q01DX009 (ip), vehicle: Klucel (hydroxypropylcellulose) (HPC)): 96 % of control | T/C (dose: 1.0 mg/kg/injection, schedule: Q01DX009 (ip), vehicle: Klucel (hydroxypropylcellulose) (HPC)): 100 % of control

FC(F)(F)c1ccc(Cl)c(NC2=NCCCS2)c1
T/C [1]: 96 % of control | T/C [2]: 89 % of control

CCOC(=O)C(=O)C(C#N)C(=O)OCC (stereo unspecified)
T/C (dose: 3.12 mg/kg/injection, schedule: Q01DX009 (ip), vehicle: Klucel (hydroxypropylcellulose) (HPC)): 88 % of control | T/C (dose: 6.25 mg/kg/injection, schedule: Q01DX009 (ip), vehicle: Klucel (hydroxypropylcellulose) (HPC)): 109 % of control | T/C (dose: 8.2 mg/kg/injection, schedule: Q01DX009 (ip), vehicle: Klucel (hydroxypropylcellulose) (HPC)): 100 % of control | T/C (dose: 12.5 mg/kg/injection, schedule: Q01DX009 (ip), vehicle: Klucel (hydroxypropylcellulose) (HPC)): 96 % of control and 100 % of control | T/C (dose: 18.0 mg/kg/injection, schedule: Q01DX009 (ip), vehicle: Klucel (hydroxypropylcellulose) (HPC)): 96 % of control and 105 % of control

O=C(O)CCc1cccnc1
T/C [3]: 104 % of control | T/C [4]: 107 % of control | T/C [5]: 106 % of control | T/C [6]: 107 % of control

O=C(O)C1CCCCC1C(=O)Nc1ccc(F)cc1 (stereo unspecified)
T/C [7]: 105 % of control | T/C [8]: 105 % of control | T/C [9]: 88 % of control and 96 % of control

CCC1=C(c2cc(Cl)c3ccccc3c2OCC(=O)O)OC(CC)(C(=O)c2cc(Cl)c3ccccc3c2OCC(=O)O)CC1 (stereo unspecified)
T/C (dose: 25.0 mg/kg/injection, schedule: Q01DX009 (ip), vehicle: Klucel (hydroxypropylcellulose) (HPC)): 102 % of control | T/C (dose: 30.0 mg/kg/injection, schedule: Q01DX009 (ip), vehicle: saline with Tween-80): 90 % of control | T/C [1]: 102 % of control | T/C (dose: 60.0 mg/kg/injection, schedule: Q01DX009 (ip), vehicle: saline with Tween-80): 93 % of control | T/C [2]: 102 % of control | T/C [10]: 110 % of control | T/C (dose: 120.0 mg/kg/injection, schedule: Q01DX009 (ip), vehicle: saline with Tween-80): 93 % of control | T/C [11]: 95 % of control | T/C (dose: 240.0 mg/kg/injection, schedule: Q01DX009 (ip), vehicle: saline with Tween-80): 86 % of control

CCCCCCCCCCCCOCCOCCOCC(N)=O
T/C [4]: 112 % of control | T/C [5]: 109 % of control | T/C [6]: 90 % of control

O=C(O)c1ccc(S(=O)(=O)O)cc1C(=O)O
T/C [3]: 92 % of control | T/C [4]: 96 % of control | T/C [5]: 98 % of control

O=Nc1ccc(O)c(=O)cc1
T/C (dose: 1.0 mg/kg/injection, schedule: Q01DX009 (ip), vehicle: saline with Tween-80): 97 % of control | T/C (dose: 2.0 mg/kg/injection, schedule: Q01DX009 (ip), vehicle: saline with Tween-80): 90 % of control

CCC(=S)Nc1ccc(Cl)cc1
T/C (dose: 25.0 mg/kg/injection, schedule: Q01DX009 (ip), vehicle: carboxymethylcellulose (CMC)): 100 % of control | T/C (dose: 50.0 mg/kg/injection, schedule: Q01DX009 (ip), vehicle: carboxymethylcellulose (CMC)): 107 % of control | T/C (dose: 100.0 mg/kg/injection, schedule: Q01DX009 (ip), vehicle: carboxymethylcellulose (CMC)): 103 % of control

CC(Oc1ccccc1)C(=O)c1ccccc1 (stereo unspecified)
T/C [9]: 90 % of control | T/C [12]: 90 % of control | T/C [13]: 93 % of control

COc1cccc2c1C(=O)c1c(O)c3c(c(O)c1C2=O)CC(O)(/C(C)=N/NC(=O)CCCCC(=O)N/N=C(\C)C1(O)Cc2c(O)c4c(c(O)c2C(OC2CC(N)C(O)C(C)O2)C1)C(=O)c1c(OC)cccc1C4=O)CC3OC1CC(N)C(O)C(C)O1 (stereo unspecified)
T/C (dose: 0.38 mg/kg/injection, schedule: Q01DX009 (ip), vehicle: water): 114 % of control | T/C (dose: 1.5 mg/kg/injection, schedule: Q01DX009 (ip), vehicle: water): 177 % of control | T/C (dose: 3.0 mg/kg/injection, schedule: Q01DX009 (ip), vehicle: water): 295 % of control | T/C (dose: 6.0 mg/kg/injection, schedule: Q01DX009 (ip), vehicle: water): 208 % of control

CNC1=C(N2CC2)C(=O)C(NC)=C(N2CC2)C1=O
T/C (dose: 0.01 mg/kg/injection, schedule: Q01DX009 (ip), vehicle: saline): 102 % of control | T/C [14]: 108 % of control | T/C [15]: 94 % of control

CC(C)(C)OC(=O)NCCCC(NC(=O)OCc1ccccc1)C(=O)O (stereo unspecified)
T/C [8]: 101 % of control | T/C [9]: 96 % of control | T/C [12]: 96 % of control | T/C [13]: 86 % of control

CS(=N)(=O)c1ccccc1 (stereo unspecified)
T/C [10]: 89 % of control | T/C [11]: 100 % of control | T/C (dose: 400.0 mg/kg/injection, schedule: Q04DX003 (ip), vehicle: saline with Tween-80): 123 % of control

CCCCCCCCCCCCCCCCP(=O)(OCCOCCCCCC)OCCOCCCCCC
T/C (dose: 3.12 mg/kg/injection, schedule: Q01DX009 (ip), vehicle: saline): 103 % of control | T/C (dose: 6.25 mg/kg/injection, schedule: Q01DX009 (ip), vehicle: saline): 116 % of control | T/C (dose: 12.5 mg/kg/injection, schedule: Q01DX009 (ip), vehicle: saline): 109 % of control | T/C (dose: 25.0 mg/kg/injection, schedule: Q01DX009 (ip), vehicle: saline): 102 % of control | T/C [3]: 94 % of control

COC1=C(N)C(=O)c2nc(-c3nc(C(=O)O)c(C)c(-c4ccc(OC)c(OC)c4O)c3N)ccc2C1=O
T/C (dose: 0.03 mg/kg/injection, schedule: Q01DX009 (ip), vehicle: saline): 113 % of control | T/C (dose: 0.05 mg/kg/injection, schedule: Q01DX009 (ip), vehicle: saline): 102 % of control | T/C [14]: 102 % of control | T/C [15]: 113 % of control | T/C (dose: 0.4 mg/kg/injection, schedule: Q01DX009 (ip), vehicle: saline): 100 % of control | T/C (dose: 25.0 micrograms/kg/injection, schedule: Q01DX009 (ip), vehicle: saline): 100 % of control | T/C (dose: 50.0 micrograms/kg/injection, schedule: Q01DX009 (ip), vehicle: saline): 111 % of control | T/C (dose: 100.0 micrograms/kg/injection, schedule: Q01DX009 (ip), vehicle: saline): 112 % of control | T/C (dose: 200.0 micrograms/kg/injection, schedule: Q01DX009 (ip), vehicle: saline): 104 % of control

CC1CCCCC1NC(=O)NCCOC(=O)OCCNC(=O)NC1CCCCC1C (stereo unspecified)
T/C [9]: 97 % of control | T/C [12]: 95 % of control | T/C [13]: 97 % of control

CCCCOC(=O)c1ccc(NC(=O)Nc2ccccc2OC)cc1
T/C (dose: 12.5 mg/kg/injection, schedule: Q01DX009 (ip), vehicle: saline with Tween-80): 93 % of control | T/C [7]: 100 % of control | T/C [8]: 98 % of control

CC(C)NCC(O)c1ccc(O)c(O)c1 (stereo unspecified)
T/C (dose: 17.5 mg/kg/injection, schedule: Q01DX009 (ip), vehicle: Klucel (hydroxypropylcellulose) (HPC)): 101 % of control | T/C (dose: 35.0 mg/kg/injection, schedule: Q01DX009 (ip), vehicle: Klucel (hydroxypropylcellulose) (HPC)): 99 % of control | T/C (dose: 70.0 mg/kg/injection, schedule: Q01DX009 (ip), vehicle: Klucel (hydroxypropylcellulose) (HPC)): 94 % of control

CCOC(=O)NO
T/C (dose: 75.0 mg/kg/injection, schedule: Q01DX009 (ip), vehicle: saline): 100 % of control | T/C (dose: 150.0 mg/kg/injection, schedule: Q01DX009 (ip), vehicle: saline): 105 % of control | T/C (dose: 300.0 mg/kg/injection, schedule: Q01DX009 (ip), vehicle: saline): 103 % of control
